Key:
[1] = tested on: cultured cotton ovules; experiment: In-vitro cotton ovule culture assay, phenotypic observation of fiber growth; format: cell-based; conditions: tested 1-NAA 1, 5, 10, 20 μM; GA3 0.1, 0.5, 1, 5 μM; Anacardic acid 2, 4, 8, 10 μM; 32° C.
Excerpt: In the present invention, Anacardic acid may be dissolved in solvents selected from Dimethyl Sulfoxide (DMSO), Dimethyl formamide (DMFO), ethanol methanol, dichloromethane, ether, petroleum ether and ethyl acetate in a suitable concentration and mixed with 1Naphthaleneacetic Acid (1-NAA) and Gibberellic acid (GA3). For standardization of appropriate concentrations of phytohormones and Anacardic acid for better yield and quality of fiber, the formulation and its components were first tested on cultured ovules. Different concentrations of 1-NAA (1, 5, 10 and 20 μM) and GA3 (0.1, 0.5, 1 and 5 μM) were tested in ovule culture media and established that fiber growth was better at 5 μM 1-NAA and 0.5 μM GA3. Similarly, different concentrations of Anacardic acid (2, 4, 8 and 10 μM) were also used and established that fiber growth was better at 8 μM Anacardic acid in media in comparison to other concentrations.
Formulation was diluted with modified ½ MSL (Murasighe Skoog Liquid) media having 2% sucrose for a final concentration of Anacardic acid to 8 μM, 1-NAA to 5 μM and GA3 to 0.5 μM. This formulation was then used to culture cotton, ovules excised at −3 DPA (Day Post Anthesis) to study its effect on fiber initiation and at 0 DPA for fiber elongation. Ovules were examined (at 3 DPA for initiation and at 12 DPA for elongation stage) and photographed (Example 1). […] Cotton ovules cultured with the formulation (1-NAA+GA3+ Anacardic acid) in culture media show higher number of initiating fibers and better growth in comparison to control ovules (only phytohormones treated).
For standardization of appropriate concentrations of phytohormones and Anacardic acid for better yield and quality of fiber, the formulation and its components were first tested on cultured ovules. […]
Finally, in-vitro ovule culture experiment was performed with 8 μM Anacardic acid, 5 μM 1-NAA and 0.5 μM GA3 in media along with control sample having only 5 μM 1-NAA and 0.5 μM GA3. The phenotypic observations were recorded at 3 DPA for initiation stage and at 12 DPA for elongation stage (FIG. 1).

[2] = tested on: cultured cotton ovules; experiment: Ovule culture with different phytohormones with and without Anacardic acid; format: cell-based; conditions: 12 DPA; for growth in cultures having Anacardic acid with phytohormone: Anacardic acid added at 3 DPA, in comparison to control where only phytohormones were used; for Lignin content of ovules cultured with Anacardic acid and phytohormone: toluidine blue, in comparison to control wherein only phytohormones are used
Procedure: To check the effect of the phytohormones on fiber development for better yield and quality of fibers, different phytohormones and their combinations were tested first tested on cultured ovules. Cotton buds and flowers at 1 DPA stage were plucked from the plants for the ovule culture. Ovaries were surface sterilized using 1% Mercuric chloride solution and washed three times with MQ water. Ovules were excised using sterilized fine forceps and brushes. Isolted ovules (3-5) were transferred to culture media with different 5 μM of 1-Naphthaleneacetic acid (1NAA), Indole-3-acetic acid (IAA), 2,4-Dichlorophenoxyacetic acid (2,4-D), Kinetin, Zeatin and 0.5 μM Gibberellic acid (GA3)along with untreated ovules (having no phytohormones) placed in 35mm tissue culture dishes in two sets. All the dishes were further places in incubators set at 32° C. In one set of dishes, Anacardic acid was added to 3 DPA stage, while the other set was used to control. It has been observed that at 12 DPA stage growth in cultures having Anacardic acid with phytohormones like 1-NAA, IAA, 2,4-D and GA3 at […] was better in comparison to the control conditions, where only phytohormones were used (FIG. 8). […] For the lignin qualification, ovules were boiled in distilled water with a drop of concentrated HCl to dissolve waxes and leave the fibers hydrophilic. After rinsing in distilled water, three ovules per sample were places in a 50 ml falcon tube and stained with 30 ml. of toluidine blue solution (0.018% toluidine blue, 0.016 M Na2HPO4, 0.01 M citric acid, pH 4.5) for 30 s. After staining, the ovules were rinsed thoroughly with distilled water and briefly laid on absorbent paper to remove excess water. Ovules were then returned to 50 ml falcon tubes and 50 ml of destaining solution comprising glacial acetic acid, ethanol and water (10:95:5) added. After vigorous shaking and destaining for at least 1 h, 200μl of the solution was pipetted in triplicate into 96-well flat bottom microtiter plates for measurement of absorbance at 624 nm in a plate reader.

## O=C(O)Cc1cccc2ccccc12 [1-NAA, 1-Naphthaleneacetic acid]
[1]
  concentration at which fiber growth in ovule culture was better: 5 µM
[2]
  growth in cultures having Anacardic acid with phytohormone: better
  Lignin content of ovules cultured with Anacardic acid and phytohormone: higher

## O=C(O)Cc1c[nH]c2ccccc12 [IAA, Indole-3-acetic acid]
[2]
  growth in cultures having Anacardic acid with phytohormone: better
  Lignin content of ovules cultured with Anacardic acid and phytohormone: higher

## C=C1C[C@]23C[C@@]1(O)CC[C@H]2[C@@]12C=C[C@H](O)[C@@](C)(C(=O)O1)[C@H]2[C@@H]3C(=O)O [GA3, Gibberellic acid]
[1]
  concentration at which fiber growth in ovule culture was better: 0.5 µM
[2]
  growth in cultures having Anacardic acid with phytohormone: better
  Lignin content of ovules cultured with Anacardic acid and phytohormone: higher

## CCCCCCCCCCCCCCCc1cccc(O)c1C(=O)O [Anacardic acid]
[1]
  concentration at which fiber growth in ovule culture was better: 8 µM

## O=C(O)COc1ccc(Cl)cc1Cl [2,4-D, 2,4-Dichlorophenoxyacetic acid]
[2]
  growth in cultures having Anacardic acid with phytohormone: better
  Lignin content of ovules cultured with Anacardic acid and phytohormone: higher

Reference: patent publication US10111427B2, “Formulation for improving the yield and quality of fiber in cotton plants” (Council of Scientific & Industrial Research, priority 2015, dated 2018)
